Values quoted from earlier work in patent US11094527B2, “Wet clean solutions to prevent pattern collapse” (INTERNATIONAL BUSINESS MACHINES CORPORATION, priority 2018, dated 2021).
Like-named read-outs stand apart in the source and are kept apart here.

Tests used:
[1] = not given; remark: listed apart in the source

Water solubility (temperature not given) | Compound | Water solubility (in words) | Surface tension (at about 20° C.) [1] [mN/m] | Water solubility (20° C.) [g/100 mL]
Miscible | CC(C)O [Isopropyl alcohol, reference compound] | miscible in water | <30 | 
 | Diethyl ether | low water solubility | 16.5 | 6.9
 | c1ccccc1 [Benzene] |  | <30 | 
